Test results published in PubChem BioAssay (NCI).
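The compound was tested at five concentrations on cells cultured in 96-well plates, with a 48-hour exposure period. TGI marks complete inhibition of growth.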

What was measured:
Experiment in all cases: NCI anticancer screen, dose series, 48 h
786-0 renal = system: 786-0 renal
A498 renal = system: A498 renal
A549 NSCLC = system: A549 NSCLC
ACHN renal = system: ACHN renal
CCRF-CEM leukemia = system: CCRF-CEM leukemia
COLO 205 colon = system: COLO 205 colon
DLD-1 colon = system: DLD-1 colon
DMS 114 small cell lung = system: DMS 114 small cell lung
DMS 273 small cell lung = system: DMS 273 small cell lung
EKVX NSCLC = system: EKVX NSCLC
HCC-2998 colon = system: HCC-2998 colon
HCT-15 colon = system: HCT-15 colon
HT29 colon = system: HT29 colon
IGROV1 ovarian = system: IGROV1 ovarian
K-562 leukemia = system: K-562 leukemia
KM12 colon = system: KM12 colon
LOX IMVI melanoma = system: LOX IMVI melanoma
LXFL 529 NSCLC = system: LXFL 529 NSCLC
M14 melanoma = system: M14 melanoma
M19-MEL melanoma = system: M19-MEL melanoma
MALME-3M melanoma = system: MALME-3M melanoma
MOLT-4 leukemia = system: MOLT-4 leukemia
NCI-H23 lung = system: NCI-H23 lung
NCI-H460 lung = system: NCI-H460 lung
OVCAR-3 ovarian = system: OVCAR-3 ovarian
OVCAR-4 ovarian = system: OVCAR-4 ovarian
OVCAR-8 ovarian = system: OVCAR-8 ovarian
RPMI-8226 leukemia = system: RPMI-8226 leukemia
RXF 393 renal = system: RXF 393 renal
SF-268 CNS = system: SF-268 CNS
SF-295 CNS = system: SF-295 CNS
SF-539 CNS = system: SF-539 CNS
SK-MEL-28 melanoma = system: SK-MEL-28 melanoma
SK-MEL-5 melanoma = system: SK-MEL-5 melanoma
SK-OV-3 ovarian = system: SK-OV-3 ovarian
SN12C renal = system: SN12C renal
SNB-75 CNS = system: SNB-75 CNS
SNB-78 CNS = system: SNB-78 CNS
SR leukemia = system: SR leukemia
SW-620 colon = system: SW-620 colon
TK-10 renal = system: TK-10 renal
U251 CNS = system: U251 CNS
UACC-62 melanoma = system: UACC-62 melanoma
XF 498 CNS = system: XF 498 CNS
CAKI-1 renal = system: CAKI-1 renal
HCT-116 colon = system: HCT-116 colon
HOP-92 NSCLC = system: HOP-92 NSCLC
KM20L2 colon = system: KM20L2 colon
NCI-H226 lung = system: NCI-H226 lung
OVCAR-5 ovarian = system: OVCAR-5 ovarian
SK-MEL-2 melanoma = system: SK-MEL-2 melanoma
UACC-257 melanoma = system: UACC-257 melanoma
HL-60(TB) leukemia = system: HL-60(TB) leukemia
HOP-62 NSCLC = system: HOP-62 NSCLC
NCI-H522 lung = system: NCI-H522 lung
SNB-19 CNS = system: SNB-19 CNS
UO-31 renal = system: UO-31 renal

Measured: TGI

O=C1C2c3[nH]c4ccccc4c3C3CCCC3C2C(=O)N1c1ccccc1 (centres undefined)
not listed: CAKI-1 renal | HCT-116 colon | HOP-92 NSCLC | KM20L2 colon | NCI-H226 lung | OVCAR-5 ovarian | SK-MEL-2 melanoma | UACC-257 melanoma | HL-60(TB) leukemia | HOP-62 NSCLC | NCI-H522 lung | SNB-19 CNS | UO-31 renal
> 100 µM: all other assays above

COC(=O)c1cc(OC(C)=O)c2c(OC)ccc(OC)c2c1
not listed: A498 renal | CCRF-CEM leukemia | HCC-2998 colon | LOX IMVI melanoma | SF-268 CNS | HL-60(TB) leukemia | HOP-62 NSCLC | NCI-H522 lung | SNB-19 CNS | UO-31 renal
> 100 µM: all other assays above

COc1ccc(C2C(Cl)C(=O)N2NC(=O)c2ccc(N)cc2)cc1 (centres undefined)
not listed: RXF 393 renal | SF-268 CNS | SR leukemia
> 100 µM: all other assays above

C=CC1(CC)/C(=N\O)C(CC)(CC)C(=O)N1O (centres undefined)
not listed: SF-268 CNS
> 100 µM: all other assays above

[N-]=[N+]=Nc1ccccc1Oc1ccccc1
not listed: CCRF-CEM leukemia | MALME-3M melanoma | RXF 393 renal | HOP-92 NSCLC
> 100 µM: all other assays above
